Active and inactive are the calls of the source. How the calls were made is not given here.
Experiment: blockers of an Epstein-Barr virus protein-peptide interaction – biochemical, fluorescence polarization, dose response (AID 1419)
Settings: cell-free protein-peptide binding, 2 h; for fold change: measured here: P channel fold over control, at 54 µM

| Compound | IC50 | fold change |
| --- | --- | --- |
| COc1ccc(N2C(=O)[C@@H]3[C@H](C2=O)[C@H]2c4ccccc4C=CN2[C@@H]3C(C)=O)cc1 | 7.62 µM | 5.55 |
| C=CCn1c(CSc2nc3ccccc3s2)nnc1SCC(=O)NCc1ccco1 | > 54 µM (inactive) | 0.923 |
| Cc1cc(/C=C2\SC(=S)N(Cc3ccco3)C2=O)c(C)n1-c1cccnc1 | 8.64 µM | 18.3 |
| Cc1nnc(N2C(=O)C(O)=C(C(=O)c3ccco3)C2c2ccc(F)cc2)s1 (stereo unspecified) | 10.4 µM | 2.42 |
| CCn1nc(-c2ccccc2)nc2c(=O)n(C)c(=O)nc1-2 | 4.3 µM | 4.56 |
| OCCNc1nc(Nc2ccc(Br)cc2)nc2ccccc12 | > 54 µM (inactive) | 0.987 |
| Cc1cc2nc3c(=O)n(Cc4ccccc4)c(=O)[nH]c3nc2cc1N | < 0.42 µM | 87.1 |
| Cc1cc2c(cc1C)NC(c1c(C)n(C)n(-c3ccccc3)c1=O)C1=C(CC(C)(C)CC1=O)N2 (stereo unspecified) | 3.25 µM | 3.49 |
| O=C(Nc1ccncc1)Nc1ccc(F)cc1F | > 54 µM (inactive) | 1.04 |
| CCCCn1c(=O)[nH]c2nc3cc(NC(C)=O)ccc3nc2c1=O | 3.91 µM | 3.87 |
| O=c1cc2oc3cc(O)c(O)cc3c(-c3ccccc3O)c-2cc1O | 5.29 µM | 232 |
| O=[N+]([O-])c1ccc(N2N=C(c3ccco3)CC2c2ccccc2)cc1 (stereo unspecified) | 14.2 µM | 2.85 |
| Cc1c(N=C2N=C(NC(=O)c3cccs3)c3ccccc32)c(=O)n(-c2ccccc2)n1C | 3.19 µM | 4.49 |
| O=C(N=Nc1c(O)[nH]c2ccccc12)c1cc(-c2ccc(F)cc2)n[nH]1 | > 54 µM (inactive) | 0.81 |
| Cc1cc(-c2ccccc2)c(C#N)c(=S)[nH]1 | > 54 µM (inactive) | 1.04 |
| COc1ccccc1NC(=O)C(=O)N/N=C/c1ccc([N+](=O)[O-])s1 | > 54 µM (inactive) | 1.09 |
| CC(=O)Oc1ccc(C(=O)Nc2cccc(C(=O)c3cccc(NC(=O)c4ccc(OC(C)=O)cc4)c3)c2)cc1 | > 54 µM (inactive) | 0.997 |
| Cc1ccc2c3c(cccc13)-c1ccccc1C2=O | 2.37 µM | 2.72 |
| COc1ccc2ccccc2c1C(O)c1nccn1C (stereo unspecified) | 2.72 µM | 5.13 |
| CCOCCCn1c(=NC(=O)c2cccs2)c(C#N)cc2c(=O)n3cccc(C)c3nc21 | 7.53 µM | 4.61 |
| CCCCn1c(N)c(NCCC(C)C)c(=O)[nH]c1=O | 24.4 µM | 1.91 |

| Compound | IC50 | fold change |
| --- | --- | --- |
| NC(=O)c1c(NC(=O)CSc2nnc(-c3ccco3)n2-c2ccccc2)sc2c1CCC2 | 46 µM (inactive) | 0.977 |
| CCCNC(=O)COC(=O)c1[nH]c(C)c(C(=O)OCC)c1C | > 54 µM (inactive) | 0.937 |
| Cc1ccc(C)c(S(=O)(=O)C(C#N)c2nc3ccccc3nc2N2CCCC2)c1 (stereo unspecified) | 4.06 µM | 1.67 |
| CC(=O)Oc1ccc2c(c1)Oc1cc(OC(C)=O)ccc1C21OC(=O)c2ccccc21 | < 0.42 µM | 23.1 |
| COc1ccccc1N1CCN(CC(O)COc2cccc3ccccc23)CC1 (stereo unspecified) | > 54 µM (inactive) | 0.917 |
| CC1=C/C(=C\c2ccc(Br)o2)C(=O)O1 | > 54 µM (inactive) | 0.98 |
| COc1ccc(Nc2nc(=O)c3cc([N+](=O)[O-])ccc3s2)cc1 | > 54 µM (inactive) | 0.377 |
| CCCCNc1c2c3c(cccc3n(C)c1=O)C(=O)c1ccccc1-2 | < 0.42 µM | 150 |
| CCCCCn1c(N)c(-c2nc3ccccc3o2)c2c([N+](=O)[O-])nn(C)c(=O)c21 | 48.1 µM (inactive) | 0.443 |
| O=C(Nc1nccs1)C(c1ccccc1)N1CCCC1 (stereo unspecified) | > 54 µM (inactive) | 1.04 |
| O=C(NC1CC1)c1cc(-c2ccco2)nc2ccccc12 | 3.96 µM | 1.06 |
| CCN(CC)CCN1C2=C(C(=O)CC(C)(C)C2)C(c2cccc(F)c2)C2=C1CC(C)(C)CC2=O | > 54 µM (inactive) | 1.03 |
| CCOC(=O)C1CCCN(c2ccc([N+](=O)[O-])c3nonc23)C1 (stereo unspecified) | < 0.42 µM | 143 |
| Cc1cccn2c(=O)c3cc(C(=O)NCc4ccco4)c(=N)n(CCOCCO)c3nc12 | 3.61 µM | 3.76 |
| CCC1=NN2C(=N)/C(=C\c3cccn3-c3ccc(Br)cc3)C(=O)N=C2S1 | > 54 µM (inactive) | 1.04 |
| CCCCNc1ccc2c3c(cccc13)C(=O)N(CCCC)C2=O | < 0.42 µM | 98.3 |
| COc1ccc(/C=C2\SC(=S)N(CCCC(=O)Nc3ccccn3)C2=O)cc1OC | 8.78 µM | 9.33 |
| Cn1c(=O)[nH]c2cc(Cl)cnc21 | 7.23 µM | 2.34 |
| O=c1oc2ccccc2nc1/C=C(\O)c1ccc(Br)cc1 | > 54 µM (inactive) | 6.17 |
| COC(=O)c1cc2c(-c3ccccc3)c(C)c3ccccn3c-2c1C(=O)OC | 9.93 µM | 1.47 |
| O=C(O)COn1c(-c2ccccc2)nc2ccc([N+](=O)[O-])cc21 | > 54 µM (inactive) | 1.17 |

| Compound | IC50 | fold change |
| --- | --- | --- |
| Cn1c(O)c(C=Nc2ccc(N3CCOCC3)cc2)c(=O)n(C)c1=S | 18.9 µM | 6.36 |
| N#CC1(C#N)CC(C=O)=C(N)C1(C#N)CC(=O)C12CC3CC(CC(C3)C1)C2 (stereo unspecified) | > 54 µM (inactive) | 0.933 |
| O=c1[nH]c(S)c(/C=C2\C=Nc3ccccc32)s1 | 2 µM | 3.56 |
| O=C1N=c2ccccc2=C1c1sc(Nc2ccc(O)cc2)nc1O | 1.88 µM | 0.2 |
| CSC1=NSC2=NC(=O)/C(=C/c3coc4ccc(O)cc4c3=O)C(=N)N12 | 2.5 µM | 63.6 |
| O=C(Nc1ccc(Cl)cc1)Nc1nnc(-c2ccncc2)s1 | > 54 µM (inactive) | 1.08 |
| O=C(Cn1cc2c(n1)CCCC2)NCc1ccccn1 | 25.9 µM | 1.54 |
| O=C1c2ccccc2-c2onc3ccc(NCc4ccco4)c1c23 | < 0.42 µM | 61.5 |
| Cc1ccc(C(=O)Nn2c(O)c(C=C3N=c4ccccc4=N3)sc2=S)cc1 | > 54 µM (inactive) | 1.04 |
| CS(=O)(=O)Nc1nc2n(n1)C(c1ccccc1)C=C(c1ccc(Br)cc1)N2 (stereo unspecified) | 5.72 µM | 2.76 |
| CCn1c(COc2ccccc2C)nnc1SCC(=O)N1CCC(C)CC1 | > 54 µM (inactive) | 0.897 |
| COc1cc(CN2CCN(c3cccc(C)c3C)CC2)cc(OC)c1O | > 54 µM (inactive) | 1.03 |
| CC(=O)Nc1cccc(C2=CC(c3ccco3)n3ncnc3N2)c1 (stereo unspecified) | 1.48 µM | 20.3 |
| O=C(Nc1ccc2[nH]c3c(c2c1)CCCC3)c1ccco1 | 27.9 µM | 2.83 |
| CCCCOC(=O)Cn1c2ccc(OC)cc2c2nc3ccccc3nc21 | 4.54 µM | 5.84 |
| COc1cccc(CN2C(=O)c3cccc(N)c3C2=O)c1 | 4.47 µM | 2.76 |
| CCN(CC)c1ccc2cc(S(=O)(=O)c3ccc(Cl)cc3)c(=O)oc2c1 | 6.12 µM | 98.4 |
| COc1ccc2nc(C)cc(N3CCOCC3)c2c1 | > 54 µM (inactive) | 1.04 |
| Clc1ccc(C2=CC(c3ccco3)n3ncnc3N2)cc1 (stereo unspecified) | 3.9 µM | 3.17 |
| N#C/C(=C/c1ccc(-c2ccc(S(N)(=O)=O)cc2)o1)c1nc2ccccc2s1 | > 54 µM (inactive) | 30.3 |
| CCCCN1C(=O)C2Cc3c([nH]c4ccccc34)CN2C1=S (stereo unspecified) | 2.73 µM | 5.04 |

| Compound | IC50 | fold change |
| --- | --- | --- |
| C1=C(c2ccc(-c3ccccc3)cc2)Nc2ncnn2C1c1ccco1 (stereo unspecified) | < 0.42 µM | 15.5 |
| Cn1c(/N=C/c2c(O)ccc3ccccc23)nc2ccccc21 | 3.17 µM | 41.9 |
| CC1C2C(C)N(C)C(=O)N(C)C2N(C)C(=O)N1C (stereo unspecified) | 8.68 µM | 8.94 |
| C=CCSc1nccc(-c2cc(Cl)sc2Cl)n1 | > 54 µM (inactive) | 0.953 |
| Cc1cc2nc3c(=O)[nH]c(=O)[nH]c3nc2c([N+](=O)[O-])c1N | < 0.42 µM | 67 |
| CCOC(=O)/C(C#N)=C\c1ccc(N2CCN(C/C=C/c3ccccc3)CC2)cc1 | 18.7 µM | 16 |
| Cc1cc(S(=O)(=O)Nc2nc(CN3CCOCC3)nc3sc4c(c23)CCCC4)ccc1F | > 54 µM (inactive) | 1.04 |
| Cc1nc(Cl)c2c(n1)NC1=C(O2)C(=O)CCC1 | 0.86 µM | 22.3 |
| O=C(N=Nc1c(O)[nH]c2ccccc12)c1cc(-c2cccs2)[nH]n1 | 19.6 µM | 0.72 |
| CCN1C(=O)/C(=C\c2ccc(-c3ccc([N+](=O)[O-])cc3OC)o2)SC1=Nc1cccc(C(=O)O)c1 | > 54 µM (inactive) | 0.573 |
| OCCCc1nc2n(n1)C(c1cccs1)C=C(c1ccccc1)N2 (stereo unspecified) | < 0.42 µM | 43.2 |
| O=C(Cc1nc2ccccc2[nH]c1=O)c1ccccc1 | 9.54 µM | 5.07 |
| O=c1oc2cc(O)ccc2cc1-c1nc2c(s1)CCc1ccccc1-2 | < 0.42 µM | 37.6 |
| CCc1cc[n+](-c2nc3ccccc3nc2[N-]S(=O)(=O)c2ccc(Br)s2)cc1 | 3.71 µM | 3.49 |
| CN(C)c1ccc(Nc2c3c4c(cccc4n(C)c2=O)C(=O)c2ccccc2-3)cc1 | > 54 µM (inactive) | 1.1 |
| C(=N\NC1=Nc2cccc3cccc1c23)/c1ccccc1 | 16.9 µM | 11.4 |
| Cc1cc(NC(=O)Cc2cccs2)no1 | 16.9 µM | 1.09 |
| CC(=O)Nc1ccc2cc3ccc(NC(C)=O)cc3nc2c1 | 0.56 µM | 12.5 |
| COc1cccc(Nc2ncccc2C(=O)NCc2ccccc2)c1 | 2.59 µM | 3.14 |
| COc1ccc(-n2c(C)cc(/C=C3\SC(=S)N(Cc4ccco4)C3=O)c2C)cc1 | 7.24 µM | 5.18 |
